From patent US9335320B2, “Combinations of phosphoinositide 3-kinase inhibitor compounds and chemotherapeutic agents for the treatment of hematopoietic malignancies” (Genentech, Inc., priority 2009, dated 2016)
Like-named read-outs stand apart in the source and are kept apart here.

Legend:
[1] = system: NCI-H929 multiple myeloma xenografts; test: In vivo tumor xenograft efficacy, NCI-H929; design: species or system mice; settings: for antitumor activity (mean tumor volume change): lenalidomide 25 mg/kg ip
Source text: (§1) Xenografts were initiated with cancer cells.
(§2) Animals were monitored for regression responses.

[2] = system: multiple myeloma OPM-2 cell xenografts; test: In vivo tumor xenograft efficacy, OPM-2; design: species or system mice; settings: FIG. 13, 24 days; GDC-0941 73 mg/kg po, bortezomib 0.5 mg/kg iv, lenalidomide 25 mg/kg ip, dexamethasone 3 mg/kg po
Source text: as §1, §2

[3] = system: OPM2; test: CellTiter-Glo cell proliferation assay, OPM2
Experimental: (§3) The homogeneous assay procedure involves adding the single reagent (CellTiter-Glo® Reagent) directly to cells cultured in serum-supplemented medium. Cell washing, removal of medium and multiple pipetting steps are not required. The system detects as few as 15 cells/well in a 384-well format in 10 minutes after adding reagent and mixing.
(§4) The individual measured EC50 values of the Formula I compounds and of the chemotherapeutic agent against the particular cell are compared to the combination EC50 value. […] A CI less than 0.8 indicates synergy. A CI between 0.8 and 1.2 indicates additivity. A CI greater than 1.2 indicates antagonism. The strength of synergy is assessed according to Chou and Talalay.
(§5) The CellTiter-Glo® Luminescent Cell Viability Assay, including reagents and protocol are commercially available (Promega Corp., Madison, Wis., Technical Bulletin TB288). The assay assesses the ability of compounds to enter cells and inhibit cell proliferation. The assay principle is based on the determination of the number of viable cells present by quantitating the ATP present in a homogenous assay where addition of the Cell-Titer Glo reagent results in cell lysis and generation of a luminescent signal through the luciferase reaction. […]
(§6) Day 5—Develop Plates, Thaw Cell Titer Glo Buffer at room temperature. […] Read luminescence on Analyst HT Plate Reader (half second per well). […]

[4] = system: DoHH2; test: CellTiter-Glo cell proliferation assay, DoHH2; settings: for EC50: Homo sapiens
Experimental: (§7) The in vitro potency of the combinations of Formula I compounds with chemotherapeutic agents was measured by the cell proliferation assay of Example 15; the CellTiter-Glo® Luminescent Cell Viability Assay, commercially available from Promega Corp., Madison, Wis. […] The homogeneous assay procedure involves adding the single reagent (CellTiter-Glo® Reagent) directly to cells cultured in serum-supplemented medium. Cell washing, removal of medium and multiple pipetting steps are not required. The system detects as few as 15 cells/well in a 384-well format in 10 minutes after adding reagent and mixing.
The individual measured EC50 values of the Formula I compounds and of the chemotherapeutic agent against the particular cell are compared to the combination EC50 value. The combination index (CI) score is calculated by the Chou and Talalay method (Chou, T. and Talalay, P. (1984) Adv. Enzyme Regul. 22:27-55). A CI less than 0.8 indicates synergy. A CI between 0.8 and 1.2 indicates additivity. A CI greater than 1.2 indicates antagonism. The strength of synergy is assessed according to Chou and Talalay.
The assay assesses the ability of compounds to enter cells and inhibit cell proliferation. The assay principle is based on the determination of the number of viable cells present by quantitating the ATP present in a homogenous assay where addition of the Cell-Titer Glo reagent results in cell lysis and generation of a luminescent signal through the luciferase reaction. The luminescent signal is proportional to the amount of ATP present.
Procedure: Day 1—Seed Cell Plates (384-well black, clear bottom, microclear, TC plates with lid from Falcon #353962), Harvest cells, Seed cells at 1000 cells per 54 μl per well into 384 well Cell Plates for 3 days assay. Cell Culture Medium: RPMI or DMEM high glucose, 10% Fetal Bovine Serum, 2 mM L-Glutamine, P/S. Incubate O/N at 37 C, 5% CO2.
Day 2—Add Drug to Cells, Compound Dilution, DMSO Plates (serial 1:2 for 9 points), Add 20 ul compounds at 10 mM in the 2nd column of 96 well plate. […]

[5] = system: SUDHL6; test: CellTiter-Glo cell proliferation assay, SUDHL6; format: cell-based; settings: Homo sapiens, SU-DHL-6; SUDHL6 (DLBCL), single agent, Table 2
[6] = system: RI1; test: CellTiter-Glo cell proliferation assay, RI1; format: cell-based; settings: Ri-1; RI1 (B-NHL), single agent, Table 2
[7] = system: SUDHL5; test: CellTiter-Glo cell proliferation assay, SUDHL5; format: cell-based; settings: Homo sapiens, SU-DHL-5; SUDHL5 (DLBCL), single agent, Table 2
[8] = system: MC116; test: CellTiter-Glo cell proliferation assay, MC116; format: cell-based; settings: Homo sapiens; MC116 (NHL), single agent, Table 2
[9] = system: WSUNHL; test: CellTiter-Glo cell proliferation assay, WSUNHL; format: cell-based; settings: Homo sapiens, WSU-NHL, single agent, Table 2
[10] = system: Rec1; test: CellTiter-Glo cell proliferation assay, Rec1; format: cell-based; settings: Homo sapiens; Rec1 (B-NHL), single agent, Table 2
[11] = system: Granta519; test: CellTiter-Glo cell proliferation assay, Granta519; format: cell-based; settings: Homo sapiens, Granta-519; Granta519 (MCL), single agent, Table 2
[12] = system: Farage; test: CellTiter-Glo cell proliferation assay, Farage; format: cell-based; settings: Farage (DLBCL), single agent, Table 2
[13] = system: OciLy19; test: CellTiter-Glo cell proliferation assay, OciLy19; format: cell-based; settings: Homo sapiens, OCI-LY19; OciLy19 (DLBCL), single agent, Table 2
[14] = system: Jeko1; test: CellTiter-Glo cell proliferation assay, Jeko1; format: cell-based; settings: Homo sapiens, JeKo-1; Jeko1 (MCL), single agent, Table 2
[15] = system: SUDHL4; test: CellTiter-Glo cell proliferation assay, SUDHL4; format: cell-based; settings: Homo sapiens, SU-DHL-4; SUDHL4 (DLBCL), single agent, Table 2
[16] = system: HT; test: CellTiter-Glo cell proliferation assay, HT; format: cell-based; settings: Homo sapiens; HT (DLBCL), single agent, Table 2
[17] = system: DB; test: CellTiter-Glo cell proliferation assay, DB; format: cell-based; settings: Homo sapiens; DB (DLBCL), single agent, Table 2
[18] = system: Ramos; test: CellTiter-Glo cell proliferation assay, Ramos; format: cell-based; settings: Homo sapiens; Ramos (Burkit's), single agent, Table 2
[19] = system: SC1; test: CellTiter-Glo cell proliferation assay, SC1; format: cell-based; settings: Homo sapiens, SC-1; SC1 (DLBCL), single agent, Table 2
[20] = system: Toledo; test: CellTiter-Glo cell proliferation assay, Toledo; format: cell-based; settings: Homo sapiens; Toledo (DLBCL), single agent, Table 2
[21] = system: EJM; test: CellTiter-Glo cell proliferation assay, EJM; format: cell-based; settings: Homo sapiens, read-out: EC50 (μM) GDC-0941 (single agent), Table 4
[22] = system: KSM-12-BM; test: CellTiter-Glo cell proliferation assay, KSM-12-BM; format: cell-based; settings: Homo sapiens, read-out: EC50 (μM) GDC-0941 (single agent), Table 4
[23] = system: primary follicular lymphoma cells from patient NHL600; test: Cell-Titer Glo survival and proliferation assay, primary follicular lymphoma cells; format: cell-based, human; settings: patient NHL600, FIG. 4, single agent
Source text: GDC-0464 (Genentech, Inc.) is a potent thienopyrimidine PI3K inhibitor (US 2008/0076758). LY294002 (Eli Lilly & Co., CAS Reg. No. 154447-36-6) is also a potent inhibitor of PI3 kinases (WO 2003/035099).

[24] = system: p-AKT and p-S6RP in DoHH2, WSU-DLCL2, OPM2, and U266 cells; test: FACS intracellular detection of p-Akt and p-S6 ribosomal protein; format: cell-based, human; settings: 5 μM for 4 hrs, FIGS. 1a and 1b
Experimental: (§8) B cell lines (DoHH2 and WSU-DLCL2) and Myeloma cell lines (OPM2 and U266) were maintained in RPMI-1640/10% FBS in the presence of Pen/Strep and Glutamine.
Seed 10^7 cells of each cell line in 10 mL culture media in 10 cm Petri dish, 2 dishes for each cell line. • 2. […] Keep cells at 37° C., 5% CO2 incubator for 4 hours before harvesting. • 4. Transfer 1 mL of each condition (equivalent to 10^6 cells) to 5 mL FACS tube (BD) and spin at 1200 rpm for 5 min prior to fixation (harvest the other 9 mL culture-9×10^6 cells to 15 mL conical tube for Western). • 5. Aspirate the supernatant and fix the cells at room temperature with Fix/Perm Medium A (CAT #GAS001S-100) for 15 min. • 6. Wash the cells with PBS/2% FBS 1× • 7. Aspirate the supernatant and permeabilize the cells at room temperature with Fix/Perm Medium B (CAT #GAS002S-100) for 15 min. • 8. Wash the cells with PBS/2% FBS 1× • 9. Resuspend cells with 300 uL PBS/2% BSA and divide cells into 3 tubes 100 uL each (one for isotype-Rabbit IgG Alexa Fluor-647 and one for p-Akt Alexa Fluor-647 clone 193H12 and one for p-S6RP Alexa Fluor-647 clone D57.2.2E, all rabbit abs are from Cell Signaling). • 10. Add 50 ng of each Ab to corresponding tube and incubate at room temperature for 30 min. • 11. Wash the cells with PBS/2% FBS 1× • 12. Resuspend cells with 300 uL PBS/2% BSA and acquire data on FACSCalibur (BD) using CellQuest program. • 13. […]

[25] = system: p-AKT and p-S6RP in DoHH2, WSU-DLCL2, OPM2, and U266 cells; test: Western blotting for p-Akt, p-BAD and p-S6 ribosomal protein; format: cell-based, human; settings: 5 μM for 4 hrs, FIG. 2
Experimental: Cells were treated as indicated and lysates analyzed by Western Blotting. Beta Actin blotting indicates approximately equal loading of lysates in each lane.
as §8
Protocol: • 1. Seed 10^7 cells of each cell line in 10 mL culture media in 10 cm Petri dish, 2 dishes for each cell line. • 2. […] Keep cells at 37° C., 5% CO2 incubator for 4 hours before harvesting. • 4. Harvest 9 mL culture (equivalent to 9×10^6 cells) to 15 mL conical tube and pellet and make cell lysates with 1×SDS sample buffer. Transfer the other 1 mL of each condition (equivalent to 1×10^6 cells) to 5 mL FACS tube (BD) for FACS. • 5. Wash cells once with cold PBS. • 6. Measure the OD of the protein samples and prepare the samples with NuPAGE electrophoresis system reagents to load 20 ug of each. • 7. Mix each protein sample for electrophoresis with appropriate amount of NuPAGE LDS sample buffer and Reducing Agent and apply 70° C. heat for 10 min. • 8. Load 10 uL of SeeBlue Plus2 Pre-stained standard and 20 ug of each sample into 4-12% NuPAGE Norvex Bis-Tris Gel and run with MES-SDS buffer in the presence of antioxidant (135 volts for 1 hour in the XCell SureLock Mini-Cell apparatus). • 9. Transfer gels to the blotting membrane using iBlot apparatus. • 10. […]

[26] = system: WSU-DLCL2 lymphoma tumor xenografts; test: In vivo tumor xenograft efficacy, WSU-DLCL2; design: species or system mice; settings: for effect on tumor growth (mean tumor volume change): FIG. 18, 25 days, GDC-0941 60 mg/kg po, Formula Ib 1 mg/kg po, Rapamycin 6 mg/kg ip
Source text: as §1, §2

[27] = system: BJAB lymphoma tumor xenografts; test: In vivo tumor xenograft efficacy, BJAB; design: species or system mice
Source text: as §1, §2

[28] = system: primary diffuse large B-cell lymphoma (DLBCL) cells from patient NHL640-A055; settings: patient NHL640-A055, FIG. 5
[29] = system: DoHH2 lymphoma tumor xenografts; test: In vivo tumor xenograft efficacy, DoHH2; settings: FIG. 8, 34 days; GDC-0941 73 mg/kg po daily 21 days, rituximab 5 mg/kg iv qwk×3, CHOP
Source text: The efficacy of the combinations of the invention may be measured in vivo by implanting allografts or xenografts of cancer cells in rodents and treating the tumor-bearing animals with the combinations.
The animals were fed ad libitum water (reverse osmosis, 1 ppm Cl) and NIH 31 Modified and Irradiated Lab Diet® consisting of 18.0% crude protein, 5.0% crude fat, and 5.0% crude fiber. The mice were housed on irradiated ALPHA-Dri® Bed-O'Cobs® Laboratory Animal Bedding in static microisolators on a 12-hour light cycle at 21-22° C. (70-72° F.) and 40-60% humidity.
Xenografts were initiated with cancer cells. […] On the day of tumor implant, each test mouse received 1×10^7 cells (0.2 mL) implanted subcutaneously in the right flank, and tumor growth was monitored as the average size approached the target range of 100 to 150 mm3. […] Volume was calculated using the formula: Tumor Volume (mm^3)=(w^2×l)/2 […]
Tumors were measured twice each week using calipers. Mice were monitored individually, and each animal was euthanized when its tumor reached a volume of 1500 mm3 or at the end of the study on Day 40, whichever came first. […] The time to endpoint (TTE) for each mouse was calculated from the following equation: TTE (days)=[log10(endpoint volume,mm^3)−b]/m […]

[30] = system: Bjab; test: CellTiter-Glo cell proliferation assay, Bjab; settings: Homo sapiens
Experimental: as §3, §4, §5, §6

[31] = system: MM1.S; test: CellTiter-Glo cell proliferation assay, MM1.S; settings: Homo sapiens, read-out: EC50 (μM) GDC-0941 (single agent)
Experimental: as §7
(§9) The individual measured EC50 values of the Formula I compounds and of the chemotherapeutic agent against the particular cell are compared to the combination EC50 value. The combination index (CI) score is calculated by the Chou and Talalay method (Chou, T. and Talalay, P. (1984) Adv. Enzyme Regul. 22:27-55). A CI less than 0.8 indicates synergy. […] The strength of synergy is assessed according to Chou and Talalay.
(§10) The assay assesses the ability of compounds to enter cells and inhibit cell proliferation. The assay principle is based on the determination of the number of viable cells present by quantitating the ATP present in a homogenous assay where addition of the Cell-Titer Glo reagent results in cell lysis and generation of a luminescent signal through the luciferase reaction. […]

[32] = system: MOLP-8; test: CellTiter-Glo cell proliferation assay, MOLP-8; settings: Homo sapiens, MOLP-8, read-out: EC50 (μM) GDC-0941 (single agent)
Experimental: as §7, §9, §10

[33] = system: NCI-H929; test: CellTiter-Glo cell proliferation assay, NCI-H929; settings: Homo sapiens, NCI-H929, read-out: EC50 (μM) GDC-0941 (single agent)
Experimental: as §7, §9, §10

[34] = system: WSU-DLCL2; test: CellTiter-Glo cell proliferation assay, WSU-DLCL2; settings: Homo sapiens
Experimental: as §7, §9, §10

[35] = system: RPMI-8226; test: CellTiter-Glo cell proliferation assay, RPMI-8226; settings: Homo sapiens, RPMI-8226, read-out: EC50 (μM) GDC-0941 (single agent)
Experimental: as §7, §9, §10

[36] = FIG. 16, 33 days, GDC-0941 75 mg/kg po, bortezomib 0.5 mg/kg iv, dexamethasone 3 mg/kg po

In the case of C[C@@H]1C[C@H]2[C@@H]3CCC4=CC(=O)C=C[C@]4(C)[C@@]3(F)[C@@H](O)C[C@]2(C)[C@@]1(O)C(=O)CO [dexamethasone, (8S,9R,10S,11S,13S,14S,16R,17R)-9-fluoro-11,17-dihydroxy-17-(2-hydroxyacetyl)-10,13,16-trimethyl-6,7,8,11,12,14,15,16-octahydrocyclopenta[a]phenanthren-3-one, reference compound], the “antitumor activity (mean tumor volume change)” value [1, 36] is reported as “modest activity”, the “antitumor activity (mean tumor volume change)” value [2] is reported as “indistinguishable and moderate tumor activity” and the “response in cell proliferation assay” value ([3]; multiple myeloma OPM2 cells, FIG. 6, single agent) is reported as “relatively weak response”. The “single agent activity on viable cells (dose-response)” value ([4]; B-NHL cell line DoHH2, FIG. 3) was “relatively impotent activity”.
With CC(C)C[C@H](NC(=O)[C@H](Cc1ccccc1)NC(=O)c1cnccn1)B(O)O [bortezomib, [(1R)-3-methyl-1-({(2S)-3-phenyl-2-[(pyrazin-2-ylcarbonyl)amino]propanoyl}amino)butyl]boronic acid] the “antitumor activity (mean tumor volume change)” value ([1]; FIG. 12, 22 days, single agents, GDC-0941 73 mg/kg po, bortezomib 1 mg/kg iv, dexamethasone 10 mg/kg po) was “exceeded by the efficacy of bortezomib”, the partial responses ([1]; FIG. 12, cohorts of 10 mice) was 3 and the “antitumor activity (mean tumor volume change)” value [1, 36] was “modest activity”. The “antitumor activity (mean tumor volume change)” value [2] was “sub-clinical response which was not different than that of vehicle”.
For Nc1cccc2c1CN(C1CCC(=O)NC1=O)C2=O (stereo not shown) [lenalidomide, 3-(4-amino-1-oxoisoindolin-2-yl)piperidine-2,6-dione], the “antitumor activity (mean tumor volume change)” value [1, 36] was “modest activity” and the “antitumor activity (mean tumor volume change)” value [2] was “indistinguishable and moderate tumor activity”.
For CS(=O)(=O)N1CCN(Cc2cc3nc(-c4cccc5[nH]ncc45)nc(N4CCOCC4)c3s2)CC1 [GDC-0941, 4-(2-(1H-indazol-4-yl)-6-((4-(methylsulfonyl)piperazin-1-yl)methyl)thieno[3,2-d]pyrimidin-4-yl)morpholine], the EC50 [5] was 10 nM, the EC50 [6] was 40 nM and the EC50 [7] was 80 nM. It also gave an EC50 [8] of 160 nM, an EC50 [9] of 160 nM and an EC50 [10] of 160 nM. The EC50 [11] was 210 nM, the EC50 [12] was 240 nM and the EC50 [13] was 320 nM. It also gave an EC50 [14] of 320 nM, an EC50 [15] of 1350 nM and an EC50 [16] of 2840 nM. The EC50 [17] was ≥ 10000 nM, the EC50 [18] was ≥ 10000 nM and the EC50 [19] was ≥ 10000 nM. For the same compound, the EC50 [20] was ≥ 10000 nM, the EC50 [21] was 1.5 µM and the EC50 [22] was > 5 µM. The “potency against primary cancer cells (viable cells)” value [23] was “surprising and unexpected degree of potency”, the “p-AKT signal (flow cytometry)” value [24] was “abolished p-AKT signal” and the “p-S6RP signal (flow cytometry)” value [24] was “reduced or abolished p-S6RP signal”. For the same compound, the “p-AKT signal (western blotting)” value [25] was “significantly reduced (where present)”, the “p-S6RP signal (western blotting)” value [25] was “significantly reduced (where present)” and the “antitumor activity (mean tumor volume change)” value ([26]; FIG. 7, 20 days, GDC-0941 73 mg/kg po daily 21 days, rituximab 5 mg/kg days 0, 7, 14, CHOP from day 0) was “only modest activity”. For the same compound, the “effect on tumor growth (mean tumor volume change)” value [26] was “little effect on tumor growth”, the “antitumor activity (mean tumor volume change)” value ([27]; FIG. 10, 25 days, GDC-0941 73 mg/kg po daily 21 days, CHOP from day 0) was “only modest activity” and the “antitumor activity (mean tumor volume change)” value ([27]; FIG. 11, 25 days, GDC-0941 75 mg/kg po qd×21, rituximab 5 mg/kg days 0, 7, 14) was “only modest activity”. The “antitumor activity (mean tumor volume change)” value [2] was “indistinguishable and moderate tumor activity”, the “cell viability, relative potency” value [28] was “significantly more potent than doxorubicin” and the “antitumor activity (mean tumor volume change)” value [29] was “significantly different than vehicle”. For the same compound, the EC50 [30] was 0.33 µM, the EC50 ([30]; read-out: EC50 (μM) GDC-0941 (single agent)) was 0.33 µM and the EC50 ([3]; Homo sapiens, OPM-2, read-out: EC50 (μM) GDC-0941 (single agent)) was 1.23 µM. It also gave an EC50 ([4]; DOHH-2) of 0.26 µM, an EC50 ([4]; DOHH-2, read-out: EC50 (μM) GDC-0941 (single agent)) of 0.16 µM and an EC50 [31] of 0.22 µM. It also gave an EC50 [32] of 0.06 µM, an EC50 [33] of 0.43 µM and an EC50 ([34]; WSUDLCL2) of 0.13 µM. The EC50 ([34]; WSUDLCL2, read-out: EC50 (μM) GDC-0941 (single agent)) was 0.17 µM and the EC50 [35] was 2.53 µM.
In the case of Cc1c(CN2CCN(C(=O)[C@H](C)O)CC2)sc2c(N3CCOCC3)nc(-c3cnc(N)nc3)nc12 [Formula Ib, (S)-1-(4-((2-(2-aminopyrimidin-5-yl)-7-methyl-4-morpholinothieno[3,2-d]pyrimidin-6-yl)methyl)piperazin-1-yl)-2-hydroxypropan-1-one], the “effect on tumor growth (mean tumor volume change)” value [26] is reported as “little effect on tumor growth”.
